The values that follow come from patent US20240309342A1, “QUORUM QUENCHING ENZYME, AND METHODS OF USING SAME” (MIGAL GALILEE RESEARCH INSTITUTE LTD., priority 2021, published 2024).

Structures are written as SMILES.

This test has as its system moLRP (marine origin Lactonase Related Protein), putative AHL lactonase of the PTE-Like-Lactonase (PLL) family from marine metagenomes, recombinant with 6×His …. In words: AHL lactonase activity of purified moLRP (hydrolysis of N-acyl homoserine lactones, Michaelis-Menten kinetics, pH indicator cresol purple). Type of test: biochemical, marine metagenome (Tara Oceans); MAG of phylum Chloroflexi. The note with it: hydrolysis of AHLs by moLRP; Table 1; FIG. 3 (C4-HSL): E0=0.4 μM, 27° C.; error = standard deviation, at least three independent measurements.
A word on the Km: it is the concentration of substrate that gives half-maximal velocity. Broadly, the kcat is the maximal rate divided by the concentration of active sites. `CCCCCC(=O)CC(=O)NC1CCOC1=O` (racemic) [3-Oxo C8-HSL, N-(3-oxooctanoyl)-DL-homoserine lactone]: the Km was 74.8 ± 11 µM and the kcat came out at 0.519 ± 0.02 s⁻¹.

For the molecule `CCCC(=O)CC(=O)N[C@H]1CCOC1=O` [3-Oxo C6-HSL, N-(3-oxohexanoyl)-L-homoserine lactone], the Km stood at 150 ± 13 µM and the kcat came out at 1.30 ± 0.10 s⁻¹.

With `CCCC(=O)N[C@H]1CCOC1=O` [C4-HSL, N-butyryl-L-homoserine lactone], the Km worked out at 96.5 ± 15.3 µM and the kcat is 1.85 ± 0.11 s⁻¹.

As to `CCCCCCC(=O)N[C@H]1CCOC1=O` [C7-HSL, N-heptanoyl-L-homoserine lactone], the Km stood at 112 ± 19 µM and the kcat worked out at 0.230 ± 0.02 s⁻¹.
